Where a SMILES comes first, the peptide text is derived from it. [ ]: non-standard residue; d: D form. The star is where a group is joined. βGlc = OC[C@H]1O[C@@H](*)[C@H](O)[C@@H](O)[C@@H]1O; Nva = CCC[C@H](N)C(=O)O
Key:
Assay type in all cases: cell-based
[1] = biological target: T1, PAC1 (Homo sapiens, UniProt P41586); assay: Assay of peptides at PAC and VPAC receptors: PAC1 (EC50/EMax)
T1 sequence (P41586 21-468): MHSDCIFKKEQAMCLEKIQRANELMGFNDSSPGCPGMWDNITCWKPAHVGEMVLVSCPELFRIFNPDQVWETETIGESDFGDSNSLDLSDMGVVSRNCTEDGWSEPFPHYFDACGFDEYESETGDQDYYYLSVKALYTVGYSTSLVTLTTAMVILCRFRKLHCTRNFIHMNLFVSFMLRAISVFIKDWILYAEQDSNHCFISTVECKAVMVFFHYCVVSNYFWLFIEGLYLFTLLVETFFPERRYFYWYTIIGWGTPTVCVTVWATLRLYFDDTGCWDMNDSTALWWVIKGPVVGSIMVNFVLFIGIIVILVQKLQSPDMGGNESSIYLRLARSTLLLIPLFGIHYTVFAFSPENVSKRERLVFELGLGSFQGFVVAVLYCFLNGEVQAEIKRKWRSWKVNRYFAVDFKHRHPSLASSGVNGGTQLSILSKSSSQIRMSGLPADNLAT

[2] = biological target: T2, VPAC1 (Homo sapiens, UniProt P32241); assay: Assay of peptides at PAC and VPAC receptors: VPAC1 (EC50/EMax)
T2 sequence (P32241 31-457): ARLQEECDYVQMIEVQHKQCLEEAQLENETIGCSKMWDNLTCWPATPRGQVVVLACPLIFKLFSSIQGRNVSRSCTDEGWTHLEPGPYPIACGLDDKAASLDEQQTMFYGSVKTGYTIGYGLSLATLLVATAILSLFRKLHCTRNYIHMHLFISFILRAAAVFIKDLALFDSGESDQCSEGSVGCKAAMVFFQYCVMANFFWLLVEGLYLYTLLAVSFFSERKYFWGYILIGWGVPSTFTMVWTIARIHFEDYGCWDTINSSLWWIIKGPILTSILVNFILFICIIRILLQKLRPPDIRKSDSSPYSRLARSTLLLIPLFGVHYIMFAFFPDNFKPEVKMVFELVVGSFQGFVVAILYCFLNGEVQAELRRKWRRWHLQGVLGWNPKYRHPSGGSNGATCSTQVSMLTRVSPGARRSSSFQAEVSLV

[3] = biological target: T3, VPAC2 (Homo sapiens, UniProt P41587); assay: Assay of peptides at PAC and VPAC receptors: VPAC2 (EC50/EMax)
T3 sequence (P41587 24-438): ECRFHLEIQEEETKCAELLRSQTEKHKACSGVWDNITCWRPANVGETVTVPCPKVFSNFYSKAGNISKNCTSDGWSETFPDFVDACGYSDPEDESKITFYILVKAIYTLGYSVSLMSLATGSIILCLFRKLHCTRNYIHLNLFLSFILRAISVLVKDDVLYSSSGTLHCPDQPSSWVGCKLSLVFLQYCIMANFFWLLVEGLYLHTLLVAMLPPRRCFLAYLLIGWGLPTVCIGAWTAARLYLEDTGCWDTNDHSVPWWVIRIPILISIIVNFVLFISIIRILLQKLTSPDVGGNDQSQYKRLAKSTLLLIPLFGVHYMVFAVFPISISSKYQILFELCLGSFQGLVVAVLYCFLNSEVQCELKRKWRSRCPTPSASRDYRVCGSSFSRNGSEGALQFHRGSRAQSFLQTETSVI

Q: For CCC[C@H](NC(=O)[C@H](CCC(N)=O)NC(=O)[C@H](CCCCN)NC(=O)[C@H](CCCNC(=N)N)NC(=O)[C@H](Cc1ccc(O)cc1)NC(=O)[C@H](CCCNC(=N)N)NC(=O)[C@H](CO)NC(=O)[C@H](Cc1ccc(O)cc1)NC(=O)[C@H](CO)NC(=O)[C@H](CC(=O)O)NC(=O)[C@@H](NC(=O)[C@H](Cc1ccccc1)NC(=O)[C@@H](NC(=O)CNC(=O)[C@H](CC(=O)O)NC(=O)[C@@H](CO)NC(=O)[C@@H](N)Cc1c[nH]cn1)[C@@H](C)CC)[C@@H](C)O)C(=O)N[C@@H](C)C(=O)N[C@H](C(=O)N[C@@H](CCCCN)C(=O)N[C@@H](CCCCN)C(=O)N[C@@H](Cc1ccc(O)cc1)C(=O)N[C@@H](CC(C)C)C(=O)N[C@@H](C)C(=O)N[C@@H](C)C(=O)N[C@@H](CC(C)C)C(=O)N[C@@H](CO[C@@H]1O[C@H](CO)[C@@H](O)[C@H](O)[C@H]1O)C(=O)N[C@@H](CC(C)C)C(N)=O)C(C)C [CRA3002] (H-H[dS]DGIFTDSYSRYRKQ[Nva]AVKKYLAALS(βGlc)L-NH2), which Emax [1] is on record?
A: -79%

Q: And the Emax [2]?
A: 93%

Q: And the Emax [3]?
A: -95%

Q: How did the EC50 [2] turn out when CCC[C@H](NC(=O)[C@H](CCC(N)=O)NC(=O)[C@H](CCCCN)NC(=O)[C@H](CCCNC(=N)N)NC(=O)[C@H](Cc1ccc(O)cc1)NC(=O)[C@H](CCCNC(=N)N)NC(=O)[C@H](CO)NC(=O)[C@H](Cc1ccc(O)cc1)NC(=O)[C@H](CO)NC(=O)[C@H](CC(=O)O)NC(=O)[C@H](C)NC(=O)[C@H](Cc1ccccc1)NC(=O)[C@@H](NC(=O)CNC(=O)[C@H](CC(=O)O)NC(=O)[C@@H](CO)NC(=O)[C@@H](N)Cc1c[nH]cn1)[C@@H](C)CC)C(=O)N[C@@H](C)C(=O)N[C@H](C(=O)N[C@@H](CCCCN)C(=O)N[C@@H](CCCCN)C(=O)N[C@@H](Cc1ccc(O)cc1)C(=O)N[C@@H](CC(C)C)C(=O)N[C@@H](C)C(=O)N[C@@H](C)C(=O)N[C@H](C(=O)N[C@@H](CO[C@@H]1O[C@H](CO)[C@@H](O)[C@H](O)[C@H]1O)C(N)=O)C(C)C)C(C)C [CRA3004] (H-H[dS]DGIFADSYSRYRKQ[Nva]AVKKYLAAVS(βGlc)-NH2) was run?
A: 1370 nM

Q: What about the Emax [2] of the same compound?
A: 85%

Q: CCC[C@H](NC(=O)[C@H](CCC(N)=O)NC(=O)[C@H](CCCCN)NC(=O)[C@H](CCCNC(=N)N)NC(=O)[C@H](Cc1ccc(O)cc1)NC(=O)[C@H](CCCNC(=N)N)NC(=O)[C@H](CO)NC(=O)[C@H](Cc1ccc(O)cc1)NC(=O)[C@H](CO)NC(=O)[C@H](CC(=O)O)NC(=O)[C@H](C)NC(=O)[C@H](Cc1ccccc1)NC(=O)[C@@H](NC(=O)CNC(=O)[C@H](CC(=O)O)NC(=O)[C@@H](CO)NC(=O)[C@@H](N)Cc1c[nH]cn1)[C@@H](C)CC)C(=O)N[C@@H](C)C(=O)N[C@H](C(=O)N[C@@H](CCCCN)C(=O)N[C@@H](CCCCN)C(=O)N[C@@H](Cc1ccc(O)cc1)C(=O)N[C@@H](CC(C)C)C(=O)N[C@@H](C)C(=O)N[C@@H](C)C(=O)N[C@H](C(=O)N[C@@H](CO[C@@H]1O[C@H](CO)[C@@H](O)[C@H](O)[C@H]1O)C(=O)N[C@@H](CC(C)C)C(N)=O)C(C)C)C(C)C [CRA3005] (H-H[dS]DGIFADSYSRYRKQ[Nva]AVKKYLAAVS(βGlc)L-NH2) was tested. Which Emax [2] did it give?
A: 78%

Q: Which results are given for “HSDGIFTDSYSRYRKQLAVKKYLAAVd8L-Ser(Cell) [2ls98Cell]”?
A: EC50 [1]: 0.84 nM; PAC1 EMax [1]: 92%; EC50 [2]: 0.52 nM; VPAC1 EMax [2]: 93%; EC50 [3]: 55.6 nM; VPAC2 EMax [3]: 91%

Q: With “HSDGIFTDSYSRYRKQLAVd8KKYLAAVd8L-Ser(Lact) [2ls98Lact]” as the compound, how does the EC50 [1] read?
A: 0.72 nM

Q: And the “PAC1 EMax” value [1]?
A: 93%

Q: What about the EC50 [2] of the same compound?
A: 0.45 nM

Q: And the “VPAC1 EMax” value [2]?
A: 101%

Q: What about the EC50 [3] of the same compound?
A: 193 nM

Q: What about the “VPAC2 EMax” value [3] of the same compound?
A: 100%

— patent US20220380431A1, “GLYCOPEPTIDE ANALOGS OF SECRETIN FAMILY PEPTIDES” (ARIZONA BOARD OF REGENTS ON BEHALF OF THE UNIVERSITY OF …, priority 2017, published 2022)
